The results in this text go back to ChEMBL document CHEMBL4706759, “Novel Substituted Pyrazines as Splicing Modulators for Modulating Splicing of mRNA and Uses Thereof for Treating Diseases” (ACS Med Chem Lett, 2021).

Assay [1] deals with SMN2 pre-mRNA. Put plainly: Modulation of SMN2 mRNA splicing in spinal muscular atrophy patient fibroblasts measured after 24 hrs by TaqMan qPCR analysis. It counts as tissue-based, Homo sapiens. The settings on record: fibroblast. In general terms: Quantitative PCR measures a nucleic acid by following its amplification.
Assay [2] deals with SMN2 pre-mRNA. In words: Modulation of SMN2 mRNA splicing in spinal muscular atrophy patient fibroblasts assessed as change in SMN protein expression measured after 48 hrs by MSD analysis. To be noted: fibroblast. The arrangement: species or system Homo sapiens.

As for `CN(c1cnc(-c2ccc(-c3cn[nH]c3)cc2O)cn1)[C@H]1C[C@@H]2CCC[C@@H](N2)[C@H]1F`, the EC50 (in general, the concentration that produces a half-maximal response) was 16 nM at SMN2 pre-mRNA [1] and 0.01 nM at SMN2 pre-mRNA [2].

With `CN(c1cnc(-c2cc(F)c(-c3cn[nH]c3)cc2O)cn1)[C@H]1C[C@@H]2CC[C@@H](N2)[C@H]1F`, the figures for the EC50 at SMN2 pre-mRNA [1] and on SMN2 pre-mRNA [2] were 16 nM and 0.01 nM, respectively.

For the compound `CN(c1cnc(-c2ccc(-c3ccn(C)c(=O)c3)cc2O)cn1)[C@@H]1C[C@H]2CCC[C@H](N2)[C@@H]1F`, the EC50 at SMN2 pre-mRNA [1] was 51 nM; at SMN2 pre-mRNA [2], 0.01 nM.

Consider `CN(c1cnc(-c2ccc(-c3cn[nH]c3)cc2O)cn1)[C@H]1C[C@]2(C)CCC[C@@](C)(N2)[C@H]1F`, for which the results for the half-maximal effective concentration (EC50) at SMN2 pre-mRNA [1] and at SMN2 pre-mRNA [2] were 16 nM and 0.01 nM, respectively.

In the case of `CN(c1cnc(-c2ccc(-c3cn[nH]c3)cc2O)cn1)[C@H]1C[C@@H]2CC[C@@](C)(N2)[C@H]1F`, the EC50 at SMN2 pre-mRNA [1] stood at 16 nM; at SMN2 pre-mRNA [2], 0.01 nM.

On to `CN(c1cnc(-c2ccc(-c3cn[nH]c3)cc2O)cn1)[C@H]1C[C@@H]2CC[C@@H](N2)[C@H]1F`, for which the EC50 worked out at 16 nM on SMN2 pre-mRNA [1] and 0.01 nM on SMN2 pre-mRNA [2].
